Experimental data as given in doi:10.1101/2022.03.26.485909v4 (biorxiv, 2022).

Key:
[1] = molecular target: SPOP^MATH (Homo sapiens, UniProt O43791); assay: fluorescence polarization, displacement of FITC-puc_SBC1 peptide; format: binding
[2] = molecular target: T1, RNF130 (Homo sapiens, UniProt Q86XS8); assay: SPR, Biacore T200, amine-coupled RNF130 on CM5 chip; format: binding
T1 sequence (Q86XS8 28-304): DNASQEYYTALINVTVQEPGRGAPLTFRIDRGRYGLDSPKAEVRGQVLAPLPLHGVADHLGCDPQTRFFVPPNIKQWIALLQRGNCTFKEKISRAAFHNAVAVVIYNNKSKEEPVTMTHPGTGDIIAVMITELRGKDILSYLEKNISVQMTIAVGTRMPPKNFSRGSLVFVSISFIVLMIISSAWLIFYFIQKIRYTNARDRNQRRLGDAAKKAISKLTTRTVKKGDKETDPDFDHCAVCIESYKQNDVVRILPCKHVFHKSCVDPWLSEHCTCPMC

Sequence of SPOP^MATH (O43791 28-166): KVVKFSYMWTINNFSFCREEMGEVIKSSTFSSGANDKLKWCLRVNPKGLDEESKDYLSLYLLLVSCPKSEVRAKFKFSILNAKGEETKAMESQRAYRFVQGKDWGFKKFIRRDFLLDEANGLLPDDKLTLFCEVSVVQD

Structure (SMILES)	IC50 [1]	Kd [2]
Cc1nnc(SCC2=C(C(=O)O)N3C(=O)C(NC(=O)c4ccc(COc5ccccc5Cl)o4)C3SC2)s1 (stereo not drawn) [221C7]	4.3 µM	–
CC(=O)OCC1=C(C(=O)O)N2C(=O)C(NC(=O)c3ccc(COc4ccc(Br)cc4Cl)o3)C2SC1 (stereo not drawn) [230D7, 3-(acetoxymethyl)-7-(5-((4-bromo-2-chlorophenoxy)methyl)furan-2-carboxamido)-8-oxo-5-thia-1-azabicyclo[4.2.0]oct-2-ene-2-carboxylic acid]	8.7 µM	–
CS(=O)(=O)c1nnc(CN2C3C=C(c4ccccc4)CC2CC3)s1 (stereo not drawn) [iRNF130-63]	–	9.36 µM
